Laboratory results as given in the NIST ThermoML archive (doi:10.1016/j.jct.2005.05.019).
“And” between values parts separate entries of the source, which are not always exact repeats. Equal entries are not always repeated. Numbers after ± are expanded uncertainties.

Conditions: Liquid; for mass density: Bellows volumetry; for vapor or sublimation pressure: Closed cell (Static) method

CC(C)C [2-methylpropane]
mass density
Conditions	280 K	300 K	320 K	340 K	360 K	380 K	400 K	420 K	440 K
1000 kPa	574.99 ± 0.63 kg/m3	550.5 ± 0.61 kg/m3	523.69 ± 0.58 kg/m3	–	–	–	–	–	–
2000 kPa	576.63 ± 0.63 kg/m3	–	526.51 ± 0.58 kg/m3	496.95 ± 0.55 kg/m3	461.05 ± 0.51 kg/m3	–	–	–	–
3000 kPa	578.23 ± 0.64 kg/m3	554.67 ± 0.61 kg/m3	529.22 ± 0.58 kg/m3	500.67 ± 0.55 kg/m3	467.32 ± 0.51 kg/m3	422.93 ± 0.47 kg/m3 and 422.97 ± 0.47 kg/m3	–	–	–
4000 kPa	–	–	–	–	–	–	374.9 ± 0.41 kg/m3	–	–
5000 kPa	581.15 ± 0.64 kg/m3	558.59 ± 0.61 kg/m3	534.28 ± 0.59 kg/m3	507.71 ± 0.56 kg/m3	477.66 ± 0.53 kg/m3	441.32 ± 0.49 kg/m3 and 441.54 ± 0.49 kg/m3	394.02 ± 0.43 kg/m3	–	–
10000 kPa	587.88 ± 0.65 kg/m3	567.19 ± 0.62 kg/m3	545.21 ± 0.6 kg/m3	521.75 ± 0.57 kg/m3	496.94 ± 0.55 kg/m3	468.99 ± 0.52 kg/m3 and 469.14 ± 0.52 kg/m3	438.72 ± 0.48 kg/m3	404.86 ± 0.45 kg/m3	366.35 ± 0.4 kg/m3
20000 kPa	600.12 ± 0.66 kg/m3	581.58 ± 0.64 kg/m3	562.64 ± 0.62 kg/m3	542.79 ± 0.6 kg/m3	522.77 ± 0.58 kg/m3	501.27 ± 0.55 kg/m3 and 501.58 ± 0.55 kg/m3	479.65 ± 0.53 kg/m3	457.86 ± 0.5 kg/m3	435.91 ± 0.48 kg/m3
30000 kPa	610.42 ± 0.67 kg/m3	593.56 ± 0.65 kg/m3	576.49 ± 0.63 kg/m3	558.72 ± 0.61 kg/m3	541.32 ± 0.6 kg/m3	522.56 ± 0.57 kg/m3 and 522.99 ± 0.58 kg/m3	504.24 ± 0.55 kg/m3	486.44 ± 0.54 kg/m3	469.37 ± 0.52 kg/m3
40000 kPa	619.36 ± 0.68 kg/m3	603.71 ± 0.66 kg/m3	587.85 ± 0.65 kg/m3	571.75 ± 0.63 kg/m3	555.78 ± 0.61 kg/m3	539.38 ± 0.59 kg/m3	522.85 ± 0.58 kg/m3	507.08 ± 0.56 kg/m3	492.27 ± 0.54 kg/m3
50000 kPa	627.41 ± 0.69 kg/m3	612.8 ± 0.67 kg/m3	597.69 ± 0.66 kg/m3	582.77 ± 0.64 kg/m3	568.17 ± 0.62 kg/m3	552.44 ± 0.61 kg/m3 and 552.92 ± 0.61 kg/m3	537.71 ± 0.59 kg/m3	523.34 ± 0.58 kg/m3	510.21 ± 0.56 kg/m3
60000 kPa	634.74 ± 0.7 kg/m3	620.94 ± 0.68 kg/m3	606.61 ± 0.67 kg/m3	592.49 ± 0.65 kg/m3	578.92 ± 0.64 kg/m3	564.45 ± 0.62 kg/m3	550.04 ± 0.61 kg/m3	537.02 ± 0.59 kg/m3	524.88 ± 0.58 kg/m3
70000 kPa	641.52 ± 0.71 kg/m3	628.12 ± 0.69 kg/m3	614.55 ± 0.68 kg/m3	601.18 ± 0.66 kg/m3	588.19 ± 0.65 kg/m3	574.7 ± 0.63 kg/m3	561.13 ± 0.62 kg/m3	548.69 ± 0.6 kg/m3	537.25 ± 0.59 kg/m3
80000 kPa	647.64 ± 0.71 kg/m3	634.84 ± 0.7 kg/m3	621.94 ± 0.68 kg/m3	609.11 ± 0.67 kg/m3	596.75 ± 0.66 kg/m3	583.67 ± 0.64 kg/m3	570.85 ± 0.63 kg/m3	559.13 ± 0.62 kg/m3	548.44 ± 0.6 kg/m3
90000 kPa	653.57 ± 0.72 kg/m3	641.05 ± 0.71 kg/m3	628.85 ± 0.69 kg/m3	616.5 ± 0.68 kg/m3	604.39 ± 0.66 kg/m3	592.06 ± 0.65 kg/m3	579.4 ± 0.64 kg/m3	568.43 ± 0.63 kg/m3	558.09 ± 0.61 kg/m3
100000 kPa	659 ± 1 kg/m3	646.84 ± 1 kg/m3	635.06 ± 1.1 kg/m3	622.79 ± 1.1 kg/m3	611.7 ± 1.2 kg/m3	599.29 ± 1.2 kg/m3 and 599.44 ± 1.2 kg/m3	587.43 ± 1.2 kg/m3	576.8 ± 1.3 kg/m3	567 ± 1.3 kg/m3
120000 kPa	669.09 ± 1 kg/m3	657.68 ± 1.1 kg/m3	646.41 ± 1.1 kg/m3	634.99 ± 1.1 kg/m3	624.5 ± 1.2 kg/m3	612.95 ± 1.2 kg/m3	601.69 ± 1.3 kg/m3	591.55 ± 1.3 kg/m3	582.66 ± 1.4 kg/m3
140000 kPa	678.21 ± 1 kg/m3	667.21 ± 1.1 kg/m3	656.55 ± 1.1 kg/m3	645.72 ± 1.2 kg/m3	635.8 ± 1.2 kg/m3	624.62 ± 1.3 kg/m3	614.21 ± 1.3 kg/m3	604.56 ± 1.3 kg/m3	595.99 ± 1.4 kg/m3
160000 kPa	686.38 ± 1 kg/m3	676.01 ± 1.1 kg/m3	665.84 ± 1.1 kg/m3	655.32 ± 1.2 kg/m3	645.85 ± 1.2 kg/m3	635.26 ± 1.3 kg/m3	625.04 ± 1.3 kg/m3	616.21 ± 1.4 kg/m3	608.09 ± 1.4 kg/m3
180000 kPa	694.06 ± 1.1 kg/m3	684 ± 1.1 kg/m3	674.38 ± 1.2 kg/m3	664.26 ± 1.2 kg/m3	655.11 ± 1.2 kg/m3	644.86 ± 1.3 kg/m3	635.05 ± 1.3 kg/m3	626.52 ± 1.4 kg/m3	618.72 ± 1.4 kg/m3
200000 kPa	701.06 ± 1.1 kg/m3	691.43 ± 1.1 kg/m3	682.01 ± 1.2 kg/m3	672.25 ± 1.2 kg/m3	663.39 ± 1.3 kg/m3	653.7 ± 1.3 kg/m3 and 653.25 ± 1.3 kg/m3	644.07 ± 1.4 kg/m3	635.99 ± 1.4 kg/m3	628.4 ± 1.5 kg/m3

Conditions	vapor or sublimation pressure [kPa]
280 K	199.8 ± 0.7
300 K	369.8 ± 0.8
